We go through four compounds from patent US20140242712A1, “FLUORESCENCE DETECTION OF POISON OAK OIL” (priority 1999, published 2014).

Each structure is given as a SMILES string.

The conditions of data set [1]: in protic solvent; cited from earlier work.
Data set [2] in a line: storage stability of the boronic acid on exposure to air. Type of data set: physicochemical. Particulars: without taking any precautions to avoid exposure to air.

For `Cc1cc(C(C)(C)C)c(O)c(C(C)(C)C)c1` [BHT], the “rate constant k of reduction of nitroxide by phenols (hydrogen transfer)” value in data set [1] is 0.003 M⁻¹ s⁻¹. As to `Cc1c(C)c2c(c(C)c1O)CCC(C)(C(=O)O)O2` (stereo not shown) [TROLOX], the “rate constant k of reduction of nitroxide by phenols (hydrogen transfer)” value in data set [1] was 0.2 M⁻¹ s⁻¹.

Turning to `O=C(O)c1cc(O)c(O)c(O)c1` [gallic acid], in data set [1], the “rate constant k of reduction of nitroxide by phenols (hydrogen transfer)” value is 0.003 M⁻¹ s⁻¹. Take `CCCCB(O)O` [n-butyl boronic acid]: the “stability of the sample on storage” value in data set [2] was “stable for over a year”.
